In experiment [1] the test system is 143B cells. As to the kind of experiment: Stable isotope tracing with uniformly labeled 13C-glutamine. The note with it: [U-13C]glutamine. Type of experiment: cell-based. The protocol:
1-5.0×10^6 cells were harvested on dry ice with 1 mL pre-chilled 80% HPLC-grade methanol (Fluka Analytical). The cell mixture was incubated for 15 min on dry ice prior to centrifugation at 18,000 × g for 10 min at 4°C. The supernatant was retained, and the remaining cell pellet was resuspended in 800 µL chilled 80% methanol and centrifuged. Supernatant was combined with the previous retention and was lyophilized using a SpeedVac (Thermo Fisher). Lyophilized samples were resuspended in 20 µL ultrapure water and subjected to metabolomics profiling using the AB/SCIEX 5500 QTRAP triple quadrupole instrument. Data analysis was performed using the GiTools software. 13C-labeled glutamine and glucose was acquired in SIGMA (605166 and 389374).
Encouraged by the beneficial effects of ME1 and because ME1-dependent NADPH production is linked to intracellular malate levels, we sought to investigate the metabolic pathways and nutrients that maintain malate production upon disruption of the ETC. It is firmly believed that in cells and tissues with defective ETC function, elevated NADH/NAD+ ratio inhibits the Pyruvate dehydrogenase complex (PDC), suppressing pyruvate entry into the mitochondria and forcing its channelling towards the Lactate Dehydrogenase (LDH) in the cytosol. […] To investigate the metabolic routes that ETC-inhibited cells used to generate glutamine-derived malate, we performed an MS-based stable isotope tracing study. DMSO and Piericidin treated 143B cells were cultured in glucose-DMEM supplemented with 2 mM of uniformly labeled [^13C]glutamine, and the incorporation of ^13C into the TCA cycle and related metabolic intermediates was quantified. Oxidative metabolism of [U-^13C]glutamine would generate M+4 isotopologues of oxaloacetate (OAA) and malate, while reductive carboxylation due to ETC inhibition (TCA cycle running in a counterclockwise direction) would produce M+3 forms of OAA and malate. DMSO-treated 143B cells used glutamine as the major anaplerotic precursor, resulting in a large amount of malate M+4. As expected, the oxidation of glutamine via the TCA cycle in CI-inhibited cells was severely diminished with a 5-fold decreased in M+4 labeled malate. Nevertheless, these cells produced citrate M+5 through reductive carboxylation of glutamine-derived a-ketoglutarate. This reaction involves addition of an unlabeled carbon by IDH2 acting in reverse relative to the canonical oxidative TCA cycle. Malate M+3 also rose more than a ~2-fold in CI-inhibited cells and was likely formed after cleavage of citrate M+5 by ATP-citrate lyase (ACLY) since this induction was blunted in ACLY KO cells. Thus, cells with defective ETC use glutamine-dependent reductive carboxylation rather than oxidative metabolism as the major pathway of malate production. […]

The subject of experiment [2] is 143B cell lines. As to the kind of experiment: Cell viability of CRISPR knock-out 143B cell lines treated with ETC inhibitors. In kind it is cell-based. The protocol: All cell lines, 143b, HeLa, U2OS, and transmitochondrial cybrids carrying mutation in CI (ND2), CIII (CytB) or CIV (Cox2) subunits, were maintained in DMEM high glucose (HyClone), 10% FBS and 1% P/S at 37°C with 5% CO2. Mitochondrial mutant cells were cultured with supplementation of 50 µg/mL uridine. The selected cancer cell lines with different levels of malic enzyme (HCC15, KYSE410, CAKI1, J82, MDAMB453, Colo320, NCIH1703) were obtained from the DSMZ-German Collection of Microorganisms and Cell Cultures GmbH and cultured in the same DMEM 10% FBS medium. OCI-Lys3 and RCH-ACV cell lines (cells in suspension), were obtained from the same repository and cultured in RPMI 10% FBS medium. Transfections for gain- and loss-of-function studies were performed according to the manufacturer's instructions using the polyfect reagent (Qiagen, 301107). For cell number and proliferation experiments, cells were seeded in 12 or 6-well plates and allowed to proliferate for the specified durations. Subsequently, cells were trypsinized and quantified using a hemocytometer (NanoEnTek, DHC-N01). Cell viability was quantified using propidium iodide (PI; 50 µg/ml) staining.
Generation of knockout cell lines using CRISPR-Cas9 technology was performed with the lenti-CRISPR v2 vector (Addgene #52961). Guide sequences are: • sgGFPT1, 5-[…]-3 (SEQ ID NO: 1); • sgG6PD, 5-[…]-3 (SEQ ID NO: 2); • sgPHGDH, 5-[…]-3 (SEQ ID NO: 3); • sgMPC1, 5-[…]-3 (SEQ ID NO: 4) • sgPC, 5-CAGGCCCGGAACACACGGA-3 (SEQ ID NO: 5); • sgACLY, 5-[…]-3 (SEQ ID NO: 6); • sgME1, 5-[…]-3 (SEQ ID NO: 7).
To investigate glucose-dependent alternative metabolic pathways that become essential upon ETC inhibition, we generated through CRISPR/Cas9 technology, knock-out (KO) 143B cell lines for each of the following rate-limiting enzymes and transporters. We selected glucose 6 phosphate dehydrogenase (G6PD) for the PPP, Glutamine-Fructose-6-Phosphate Transaminase 1 (GFPT1) for the hexosamine pathway, Phosphoglycerate Dehydrogenase (PHGDH) for the serine biosynthesis pathway and Mitochondrial Pyruvate Carrier 1 (MPC1) to prevent pyruvate entry into the mitochondria. These KO and Control cells were treated with two specific ETC inhibitors (Piericidin A that targets Complex I and Antimycin A that targets Complex III) and cell viability was assessed after 3 days of treatment. […] We took advantage of the fruit fly Drosophila melanogaster model, as it is cost- and time-efficient and recapitulate a wide range of phenotypes seen in patients with metabolic and mitochondrial disorders. We obtained flies carrying mutations in Zw and Pgd genes (named: Pgd^39 Zw^lo2a), corresponding to human orthologs G6PD and 6PGD respectively. […]

Where [3] appears, read: CI-inhibited vs DMSO 143B cells.

The values below come from EP4653001A1, “TREATMENT, DIAGNOSIS AND/OR PROGNOSIS OF MITOCHONDRIAL DISEASES” (Universidad Autónoma de Madrid, priority 2024, dated 2025).

Consider `CC=C(C)C(O)C(C)C=C(C)C=CCC(C)=CCc1nc(OC)c(OC)c(O)c1C` (stereo not drawn) [Piericidin, Piericidin A], for which, in experiment [1] (setting [3]), the “decrease in M+4 labeled malate” value is listed as 5 fold and the “rise of Malate M+3” value is listed as above 2 fold. In experiment [1] (control and PC KO cells, 24 h), the “labeling of malate M+3” value was “increasing” and the “malate M+4” value is reported as “reduction”. Besides, the cell viability result in experiment [2] (G6PD KO 143B cells, after 3 days of treatment) is on record as “sensitive”. Further, the survival or proliferation result in experiment [2] (KO cells for GFPT1, PHGDH or MPC1, after 3 days of treatment) is on record as “no differences”.
